Each substance was assayed on NALM-6 cells (assay: MTT cytotoxicity assay of oxovanadium(IV) compounds, NALM-6). Conditions: 48 hr.
Format: cell-based, human
Protocol: (§1) The cytotoxicity of oxovanadium (W) complexes listed in Table 6 were tested against 9 different human cancer cell lines was performed using the MTT (3-[4,5-dimethylthiazol-2-yl]-2,5-diphenyl tetrazolium bromide) assay (Boehringer Mannheim Corp., Indianapolis, Ind.) as described previously (20). Briefly, exponentially growing tumor cells were seeded into a 96-well plate at a density of 4×10^4cells/well and incubated with medium containing the oxovanadium(IV) compounds concentrations ranging from 0.1 to 250 μM for 48 hours at 37° C. in a humidified 5% CO2 atmosphere. Triplicate wells were used for each treatment. To each well, 10 μl of MTT (0.5 mg/ml final concentration) was added and the plates were incubated at 37° C. for 4 hours to allow MTT to form formazan crystals by reacting with metabolically active cells . The formazan crystals were solubilized overnight at 37° C. in a solution containing 10% SDS in 0.01 M HCl. The absorbence of each well was measured in a microplate reader (Labsystems) at 540 nm and a reference wavelength of 690 nm. To translate the OD540 values into the number of live cells in each well, the OD540 values were compared to those on standard OD540—versus—cell number curves generated for each cell line. The percent survival was calculated using the formula: % survival=Live cell number[test]/Live cell number [control]×100. The IC50 values were calculated by non-linear regression analysis using an Graphpad Prism software version 2.0 (Graphpad Software, Inc., San Diego, Calif.).

Row | Substance | IC50
1 | bis(2,2′-bipyridyl)sulfatooxovanadium(IV) [Compound 35] | 15.5 ± 3.8 µM
2 | (diaqua)(2,2′-bipyrimidine)oxovanadium(IV) sulfate [Compound 38] | 12.1 ± 1.6 µM
3 | bis(1,10-phenanthroline)sulfatooxovanadium(IV) [Compound 27] | 0.97 ± 0.1 µM
4 | bis(2,2′-bipyrimidine)sulfatooxovanadium(IV) [Compound 39] | 12.2 ± 2.3 µM
5 | (diaqua)(2,2′ bipyridyl)oxovanadium(IV) sulfate [Compound 34] | 14.9 ± 0.6 µM
6 | (diaqua)(5-nitro-1,10-phenanthroline)oxovanadium(IV) sulfate [Compound 32] | 4.1 ± 0.4 µM
7 | (diaqua)(4,4′-dimethyl-2,2′-bipyridyl)oxovanadium(IV) sulfate [Compound 36] | 8.5 ± 0.5 µM

These substances were tested on MOLT-3 cells (assay: MTT cytotoxicity assay of oxovanadium(IV) compounds, MOLT-3). Conditions: 48 hr.
Format: cell-based, human
Protocol: as §1

Row | Substance | IC50
8 | bis(2,2′-bipyridyl)sulfatooxovanadium(IV) [Compound 35] | 14.2 ± 3.8 µM
9 | (diaqua)(2,2′-bipyrimidine)oxovanadium(IV) sulfate [Compound 38] | 27.7 ± 2.5 µM
10 | bis(1,10-phenanthroline)sulfatooxovanadium(IV) [Compound 27] | 1.4 ± 0.04 µM
11 | bis(2,2′-bipyrimidine)sulfatooxovanadium(IV) [Compound 39] | 35.1 ± 4.7 µM
12 | (diaqua)(2,2′ bipyridyl)oxovanadium(IV) sulfate [Compound 34] | 13.1 ± 1.1 µM
13 | (diaqua)(5-nitro-1,10-phenanthroline)oxovanadium(IV) sulfate [Compound 32] | 2.3 ± 0.3 µM
14 | (diaqua)(4,4′-dimethyl-2,2′-bipyridyl)oxovanadium(IV) sulfate [Compound 36] | 8.2 ± 0.5 µM

What follows are substances tested on HS445 Hodgkin's lymphoma cells (assay: MTT cytotoxicity assay of oxovanadium(IV) compounds, HS445). Conditions: 48 hr.
Format: cell-based, human
Protocol: as §1

Row | Substance | IC50
15 | bis(2,2′-bipyridyl)sulfatooxovanadium(IV) [Compound 35] | 21.6 ± 4.3 µM
16 | (diaqua)(2,2′-bipyrimidine)oxovanadium(IV) sulfate [Compound 38] | 96.5 ± 8.6 µM
17 | bis(1,10-phenanthroline)sulfatooxovanadium(IV) [Compound 27] | 5.8 ± 1.2 µM
18 | bis(2,2′-bipyrimidine)sulfatooxovanadium(IV) [Compound 39] | 98.4 ± 9.1 µM
19 | (diaqua)(2,2′ bipyridyl)oxovanadium(IV) sulfate [Compound 34] | 41.7 ± 5.4 µM
20 | (diaqua)(5-nitro-1,10-phenanthroline)oxovanadium(IV) sulfate [Compound 32] | 9.1 ± 2.5 µM
21 | (diaqua)(4,4′-dimethyl-2,2′-bipyridyl)oxovanadium(IV) sulfate [Compound 36] | 27.8 ± 3.4 µM

Each substance was assayed on HL-60 cells (assay: MTT cytotoxicity assay of oxovanadium(IV) compounds, HL-60). Conditions: 48 hr.
Format: cell-based, human
Protocol: as §1

Row | Substance | IC50
22 | bis(2,2′-bipyridyl)sulfatooxovanadium(IV) [Compound 35] | 31.4 ± 6.9 µM
23 | (diaqua)(2,2′-bipyrimidine)oxovanadium(IV) sulfate [Compound 38] | > 100 µM
24 | bis(1,10-phenanthroline)sulfatooxovanadium(IV) [Compound 27] | 4.6 ± 1.4 µM
25 | bis(2,2′-bipyrimidine)sulfatooxovanadium(IV) [Compound 39] | > 100 µM
26 | (diaqua)(2,2′ bipyridyl)oxovanadium(IV) sulfate [Compound 34] | > 100 µM
27 | (diaqua)(5-nitro-1,10-phenanthroline)oxovanadium(IV) sulfate [Compound 32] | 4.9 ± 1.2 µM
28 | (diaqua)(4,4′-dimethyl-2,2′-bipyridyl)oxovanadium(IV) sulfate [Compound 36] | 38.6 ± 4.5 µM

What follows are substances tested on U266BL multiple myeloma cells (assay: MTT cytotoxicity assay of oxovanadium(IV) compounds, U266BL). Conditions: 48 hr.
Format: cell-based, human
Protocol: as §1

Row | Substance | IC50
29 | bis(2,2′-bipyridyl)sulfatooxovanadium(IV) [Compound 35] | 32.1 ± 5.2 µM
30 | (diaqua)(2,2′-bipyrimidine)oxovanadium(IV) sulfate [Compound 38] | 91.2 ± 9.9 µM
31 | bis(1,10-phenanthroline)sulfatooxovanadium(IV) [Compound 27] | 2.2 ± 0.6 µM
32 | bis(2,2′-bipyrimidine)sulfatooxovanadium(IV) [Compound 39] | 99.1 ± 8.1 µM
33 | (diaqua)(2,2′ bipyridyl)oxovanadium(IV) sulfate [Compound 34] | 30.4 ± 7.8 µM
34 | (diaqua)(5-nitro-1,10-phenanthroline)oxovanadium(IV) sulfate [Compound 32] | 18.1 ± 5.1 µM
35 | (diaqua)(4,4′-dimethyl-2,2′-bipyridyl)oxovanadium(IV) sulfate [Compound 36] | 38.4 ± 3.2 µM

What follows are substances tested on ARH77 multiple myeloma cells (assay: MTT cytotoxicity assay of oxovanadium(IV) compounds, ARH77). Conditions: 48 hr.
Format: cell-based, human
Protocol: as §1, with “Briefly, exponentially growing tumor cells were seeded into a 96-well plate at a density of 4×10^4cells/well and incubated with medium containing the oxovanadium(IV) compounds concentrations ranging from 0.1 to 250 μM for 48 hours at 37° C. in a humidified 5% CO2 atmosphere.” left out

Row | Substance | IC50
36 | bis(2,2′-bipyridyl)sulfatooxovanadium(IV) [Compound 35] | 26.8 ± 5.4 µM
37 | (diaqua)(2,2′-bipyrimidine)oxovanadium(IV) sulfate [Compound 38] | > 100 µM
38 | bis(1,10-phenanthroline)sulfatooxovanadium(IV) [Compound 27] | 3.3 ± 0.8 µM
39 | bis(2,2′-bipyrimidine)sulfatooxovanadium(IV) [Compound 39] | > 100 µM
40 | (diaqua)(2,2′ bipyridyl)oxovanadium(IV) sulfate [Compound 34] | > 100 µM
41 | (diaqua)(5-nitro-1,10-phenanthroline)oxovanadium(IV) sulfate [Compound 32] | 5.4 ± 1.5 µM
42 | (diaqua)(4,4′-dimethyl-2,2′-bipyridyl)oxovanadium(IV) sulfate [Compound 36] | > 100 µM

These substances were tested on HS-SULTAN multiple myeloma cells (assay: MTT cytotoxicity assay of oxovanadium(IV) compounds, HS-SULTAN). Conditions: 48 hr.
Format: cell-based, human
Protocol: as §1

Row | Substance | IC50
43 | bis(2,2′-bipyridyl)sulfatooxovanadium(IV) [Compound 35] | 35.4 ± 3.3 µM
44 | (diaqua)(2,2′-bipyrimidine)oxovanadium(IV) sulfate [Compound 38] | > 100 µM
45 | bis(1,10-phenanthroline)sulfatooxovanadium(IV) [Compound 27] | 4.4 ± 0.8 µM
46 | bis(2,2′-bipyrimidine)sulfatooxovanadium(IV) [Compound 39] | > 100 µM
47 | (diaqua)(2,2′ bipyridyl)oxovanadium(IV) sulfate [Compound 34] | 62.8 ± 2.3 µM
48 | (diaqua)(5-nitro-1,10-phenanthroline)oxovanadium(IV) sulfate [Compound 32] | 14.5 ± 2.5 µM
49 | (diaqua)(4,4′-dimethyl-2,2′-bipyridyl)oxovanadium(IV) sulfate [Compound 36] | 65.1 ± 6.1 µM

Each substance was assayed on 833-K testicular cancer cells (assay: Cytotoxic activity of oxovanadium(IV) compounds, 833-K). Conditions: not given.
Format: cell-based, human
Protocol: as §1

Row | Substance | IC50
50 | (diaqua)(2,2′ bipyridyl)oxovanadium(IV) sulfate [Compound 34] | > 100 µM

Same assay, conditions: read-out: Cytotoxic Activity 833-K

Row | Substance | IC50
51 | bis(2,2′-bipyridyl)sulfatooxovanadium(IV) [Compound 35] | 96.2 µM
52 | (diaqua)(2,2′-bipyrimidine)oxovanadium(IV) sulfate [Compound 38] | > 100 µM
53 | bis(1,10-phenanthroline)sulfatooxovanadium(IV) [Compound 27] | 7.5 µM
54 | bis(2,2′-bipyrimidine)sulfatooxovanadium(IV) [Compound 39] | > 100 µM
55 | (diaqua)(5-nitro-1,10-phenanthroline)oxovanadium(IV) sulfate [Compound 32] | 11.5 µM
56 | (diaqua)(4,4′-dimethyl-2,2′-bipyridyl)oxovanadium(IV) sulfate [Compound 36] | > 100 µM

The substances below were run on 64cp5 testicular cancer cells (assay: Cytotoxic activity of oxovanadium(IV) compounds, 64cp5). Conditions: not given.
Format: cell-based, human
Protocol: as §1

Row | Substance | IC50
57 | (diaqua)(2,2′ bipyridyl)oxovanadium(IV) sulfate [Compound 34] | > 100 µM

Same assay, conditions: read-out: Cytotoxic Activity 64cp5

Row | Substance | IC50
58 | bis(2,2′-bipyridyl)sulfatooxovanadium(IV) [Compound 35] | > 100 µM
59 | (diaqua)(2,2′-bipyrimidine)oxovanadium(IV) sulfate [Compound 38] | > 100 µM
60 | bis(1,10-phenanthroline)sulfatooxovanadium(IV) [Compound 27] | 18.5 µM
61 | bis(2,2′-bipyrimidine)sulfatooxovanadium(IV) [Compound 39] | > 100 µM
62 | (diaqua)(5-nitro-1,10-phenanthroline)oxovanadium(IV) sulfate [Compound 32] | 25.4 µM
63 | (diaqua)(4,4′-dimethyl-2,2′-bipyridyl)oxovanadium(IV) sulfate [Compound 36] | > 100 µM

The substances below were run on Tera-2 testicular cancer cells (assay: Cytotoxic activity of oxovanadium(IV) compounds, TERA-2). Conditions: not given.
Format: cell-based, human
Protocol: as §1

Row | Substance | IC50
64 | (diaqua)(2,2′ bipyridyl)oxovanadium(IV) sulfate [Compound 34] | > 100 µM

Same assay, conditions: read-out: Cytotoxic Activity TERA-2

Row | Substance | IC50
65 | bis(2,2′-bipyridyl)sulfatooxovanadium(IV) [Compound 35] | > 100 µM
66 | (diaqua)(2,2′-bipyrimidine)oxovanadium(IV) sulfate [Compound 38] | 74.3 µM
67 | bis(1,10-phenanthroline)sulfatooxovanadium(IV) [Compound 27] | 37.6 µM
68 | bis(2,2′-bipyrimidine)sulfatooxovanadium(IV) [Compound 39] | > 100 µM
69 | (diaqua)(5-nitro-1,10-phenanthroline)oxovanadium(IV) sulfate [Compound 32] | 7.2 µM
70 | (diaqua)(4,4′-dimethyl-2,2′-bipyridyl)oxovanadium(IV) sulfate [Compound 36] | > 100 µM

What follows are substances tested on NTD1 testicular cancer cells (assay: Cytotoxic activity of oxovanadium(IV) compounds, NTD1). Conditions: not given.
Format: cell-based, human
Protocol: as §1

Row | Substance | IC50
71 | (diaqua)(2,2′ bipyridyl)oxovanadium(IV) sulfate [Compound 34] | > 100 µM

Same assay, conditions: read-out: Cytotoxic Activity NTD1

Row | Substance | IC50
72 | bis(2,2′-bipyridyl)sulfatooxovanadium(IV) [Compound 35] | > 100 µM
73 | (diaqua)(2,2′-bipyrimidine)oxovanadium(IV) sulfate [Compound 38] | > 100 µM
74 | bis(1,10-phenanthroline)sulfatooxovanadium(IV) [Compound 27] | > 100 µM
75 | bis(2,2′-bipyrimidine)sulfatooxovanadium(IV) [Compound 39] | > 100 µM
76 | (diaqua)(5-nitro-1,10-phenanthroline)oxovanadium(IV) sulfate [Compound 32] | 20.2 µM
77 | (diaqua)(4,4′-dimethyl-2,2′-bipyridyl)oxovanadium(IV) sulfate [Compound 36] | > 100 µM

These substances were tested on U373 glioblastoma cells (assay: Cytotoxic activity of oxovanadium(IV) compounds, U373). Conditions: not given.
Format: cell-based, human
Protocol: as §1

Row | Substance | IC50
78 | (diaqua)(2,2′ bipyridyl)oxovanadium(IV) sulfate [Compound 34] | 58.4 µM

Same assay, conditions: read-out: Cytotoxic Activity U373

Row | Substance | IC50
79 | bis(2,2′-bipyridyl)sulfatooxovanadium(IV) [Compound 35] | > 100 µM
80 | (diaqua)(2,2′-bipyrimidine)oxovanadium(IV) sulfate [Compound 38] | > 100 µM
81 | bis(1,10-phenanthroline)sulfatooxovanadium(IV) [Compound 27] | 6.8 µM
82 | bis(2,2′-bipyrimidine)sulfatooxovanadium(IV) [Compound 39] | > 100 µM
83 | (diaqua)(5-nitro-1,10-phenanthroline)oxovanadium(IV) sulfate [Compound 32] | 20.5 µM
84 | (diaqua)(4,4′-dimethyl-2,2′-bipyridyl)oxovanadium(IV) sulfate [Compound 36] | > 100 µM

These substances were tested on BT20 breast cancer cells (assay: Cytotoxic activity of oxovanadium(IV) compounds, BT20). Conditions: not given.
Format: cell-based, human
Protocol: as §1

Row | Substance | IC50
85 | (diaqua)(2,2′ bipyridyl)oxovanadium(IV) sulfate [Compound 34] | 51.2 µM

Same assay, conditions: read-out: Cytotoxic Activity BT20

Row | Substance | IC50
86 | bis(2,2′-bipyridyl)sulfatooxovanadium(IV) [Compound 35] | 70.8 µM
87 | (diaqua)(2,2′-bipyrimidine)oxovanadium(IV) sulfate [Compound 38] | > 100 µM
88 | bis(1,10-phenanthroline)sulfatooxovanadium(IV) [Compound 27] | 7.2 µM
89 | bis(2,2′-bipyrimidine)sulfatooxovanadium(IV) [Compound 39] | > 100 µM
90 | (diaqua)(5-nitro-1,10-phenanthroline)oxovanadium(IV) sulfate [Compound 32] | 13.7 µM
91 | (diaqua)(4,4′-dimethyl-2,2′-bipyridyl)oxovanadium(IV) sulfate [Compound 36] | > 100 µM

What follows are substances tested on PC3 prostate cancer cells (assay: Cytotoxic activity of oxovanadium(IV) compounds, PC3). Conditions: not given.
Format: cell-based, human
Protocol: as §1

Row | Substance | IC50
92 | (diaqua)(2,2′ bipyridyl)oxovanadium(IV) sulfate [Compound 34] | 55.8 µM

Same assay, conditions: read-out: Cytotoxic Activity PC3

Row | Substance | IC50
93 | bis(2,2′-bipyridyl)sulfatooxovanadium(IV) [Compound 35] | 56.2 µM
94 | bis(1,10-phenanthroline)sulfatooxovanadium(IV) [Compound 27] | 10.8 µM
95 | (diaqua)(5-nitro-1,10-phenanthroline)oxovanadium(IV) sulfate [Compound 32] | 12.9 µM

Reference: patent US7091351B2, “Vanadium compounds for treating cancer” (Parker Hughes Institute, priority 1998, dated 2006)
